Source: ChEMBL document CHEMBL3885861, “Open TG-GATES”

Organism: Rattus norvegicus
Assay: Open TG-GATES - Regimen: Single
Format: toxicity, organism-based, Sprague-Dawley
Design: regimen Single, gender Male, age 6 weeks
Settings: in vivo, po, 0 mg/kg, route gavage, dose level Control; for APTT / Bas / Eos / Fbg / Hb / Ht / Lym / MCH / MCHC / MCV / Mono / Neu / PT / Plat / RBC / Ret / WBC: tissue Blood; for KIDNEY_L / KIDNEY_R / KIDNEY_TOTAL: tissue Kidney; for LIVER: tissue Liver; for A/G / ALP / ALT / AST / BUN / CRE / Ca / Cl / DBIL / GLC / IP / K / LDH / Na / PL / RALB / TBIL / TC / TG / TP / gamma-GTP: tissue Plasma

SMILES: CN1C(=O)CCS(=O)(=O)C1c1ccc(Cl)cc1 (stereo unspecified) [CHLORMEZANONE]
- TERMINAL_BW (3 h): 226.1 g
- APTT (3 h): 17 s
- Bas (3 h): 0%
- Eos (3 h): 0.8%
- Fbg (3 h): 315.6 mg/dL
- Hb (3 h): 13.7 g/dL
- Ht (3 h): 40.3%
- Lym (3 h): 80.4%
- MCH (3 h): 21.7 pg
- MCHC (3 h): 33.9%
- MCV (3 h): 64.1 fL
- Mono (3 h): 3%
- Neu (3 h): 15%
- PT (3 h): 13.1 s
- Plat (3 h): 122.7 x10_4/uL
- RBC (3 h): 629.8 x10_4/ul
- Ret (3 h): 7.8%
- WBC (3 h): 78.6 x10_2/uL
- KIDNEY_L (3 h): 1 g
- KIDNEY_R (3 h): 1 g
- KIDNEY_TOTAL (3 h): 2 g
- LIVER (3 h): 10.3 g
- A/G (3 h): 0.9
- ALP (3 h): 1820.8 IU/L
- ALT (3 h): 43.6 IU/L
- AST (3 h): 67.4 IU/L
- BUN (3 h): 10.2 mg/dL
- CRE (3 h): 0.1 mg/dL
- Ca (3 h): 11.5 mg/dL
- Cl (3 h): 106.2 meq/L
- DBIL (3 h): 0.036 mg/dL
- GLC (3 h): 182.2 mg/dL
- IP (3 h): 9.5 mg/dL
- K (3 h): 4.2 meq/L
- LDH (3 h): 58.2 IU/L
- Na (3 h): 140.2 meq/L
- PL (3 h): 145.2 mg/dL
- RALB (3 h): 2.7 g/dL
- TBIL (3 h): 0.044 mg/dL
- TC (3 h): 73.8 mg/dL
- TG (3 h): 108.2 mg/dL
- TP (3 h): 5.7 g/dL
- gamma-GTP (3 h): 1 IU/L
- TERMINAL_BW (6 h): 224.1 g
- APTT (6 h): 15.7 s
- Bas (6 h): 0%
- Eos (6 h): 1%
- Fbg (6 h): 310.2 mg/dL
- Hb (6 h): 13.7 g/dL
- Ht (6 h): 40.5%
- Lym (6 h): 75%
- MCH (6 h): 21.9 pg
- MCHC (6 h): 33.8%
- MCV (6 h): 65 fL
- Mono (6 h): 3.4%
- Neu (6 h): 19.8%
- PT (6 h): 13.2 s
- Plat (6 h): 113.5 x10_4/uL
- RBC (6 h): 622.8 x10_4/ul
- Ret (6 h): 7.8%
- WBC (6 h): 97 x10_2/uL
- KIDNEY_L (6 h): 0.9 g
- KIDNEY_R (6 h): 0.9 g
- KIDNEY_TOTAL (6 h): 1.8 g
- LIVER (6 h): 9.3 g
- A/G (6 h): 0.9
- ALP (6 h): 1407 IU/L
- ALT (6 h): 40.8 IU/L
- AST (6 h): 78 IU/L
- BUN (6 h): 10.4 mg/dL
- CRE (6 h): 0.2 mg/dL
- Ca (6 h): 11.6 mg/dL
- Cl (6 h): 107 meq/L
- DBIL (6 h): 0.02 mg/dL
- GLC (6 h): 180.2 mg/dL
- IP (6 h): 9.8 mg/dL
- K (6 h): 4.3 meq/L
- LDH (6 h): 57.8 IU/L
- Na (6 h): 141.8 meq/L
- PL (6 h): 145.6 mg/dL
- RALB (6 h): 2.7 g/dL
- TBIL (6 h): 0.04 mg/dL
- TC (6 h): 85.2 mg/dL
- TG (6 h): 54.4 mg/dL
- TP (6 h): 5.7 g/dL
- gamma-GTP (6 h): 1.4 IU/L
